This note sets out measurements from patent US7906491B2 (Univisitair Medisch Centrum Utrecht, priority 2002, dated 2011).

The test system of one assay is PKAI. The experiment in a line: Relative affinity for PKAI (cAMP = 1), in vitro. It is filed as binding. The note with it: relative to cAMP = 1.
A further assay addresses T1, Epac1-ΔDEP1 (Homo sapiens, UniProt O95398).
T1 sequence (O95398 191-923 limits assumed): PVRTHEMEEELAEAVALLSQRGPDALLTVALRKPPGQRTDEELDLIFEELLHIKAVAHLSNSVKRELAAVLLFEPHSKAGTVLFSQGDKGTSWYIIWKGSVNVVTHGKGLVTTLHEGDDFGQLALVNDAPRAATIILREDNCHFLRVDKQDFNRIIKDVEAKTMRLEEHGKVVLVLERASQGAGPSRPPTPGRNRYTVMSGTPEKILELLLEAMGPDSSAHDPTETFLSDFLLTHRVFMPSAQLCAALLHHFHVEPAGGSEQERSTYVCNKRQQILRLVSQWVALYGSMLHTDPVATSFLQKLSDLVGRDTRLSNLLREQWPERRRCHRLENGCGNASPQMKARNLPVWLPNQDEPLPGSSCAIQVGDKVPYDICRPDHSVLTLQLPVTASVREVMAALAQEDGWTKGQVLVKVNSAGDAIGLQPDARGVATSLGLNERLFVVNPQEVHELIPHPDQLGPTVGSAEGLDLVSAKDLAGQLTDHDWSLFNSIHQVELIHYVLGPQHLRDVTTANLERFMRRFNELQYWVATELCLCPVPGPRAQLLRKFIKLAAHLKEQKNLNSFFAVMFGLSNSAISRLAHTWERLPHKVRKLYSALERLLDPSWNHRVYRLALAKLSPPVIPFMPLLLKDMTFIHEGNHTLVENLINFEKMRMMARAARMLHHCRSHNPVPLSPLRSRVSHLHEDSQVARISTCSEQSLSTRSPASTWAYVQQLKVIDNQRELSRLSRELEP
The experiment in a line: In vitro GEF assay: Epac activity in the exchange reaction towards Rap (mantGDP-loaded Rap1b). Further: key: +++: activity comparible to I-007; ++: activity between I-007 and cAMP; +: activity comparible to cAMP; ±: activity less than cAMP. The class given is biochemical. The note with it: in vitro in the exchange reaction towards Rap. As for the experimental part:
In vitro GEF assays were performed as described (3,16). […] Buffer conditions were 50 mM Tris pH7.4, 150 mM NaCl, 5% glycerol, 5 mM DTE, 60 μM GTP. Reactions were carried out in 96-well plates and measured in a Cary Eclipse from Varian Inc., using the manufacturers software.

In the next assay the test system is PKAII. The experiment in a line: Relative affinity for PKAII (cAMP = 1), in vitro. It is filed as binding. The note with it: relative to cAMP = 1.
In a further assay the target is T2, Epac (Homo sapiens, UniProt O95398).
T2 sequence (O95398 1-923): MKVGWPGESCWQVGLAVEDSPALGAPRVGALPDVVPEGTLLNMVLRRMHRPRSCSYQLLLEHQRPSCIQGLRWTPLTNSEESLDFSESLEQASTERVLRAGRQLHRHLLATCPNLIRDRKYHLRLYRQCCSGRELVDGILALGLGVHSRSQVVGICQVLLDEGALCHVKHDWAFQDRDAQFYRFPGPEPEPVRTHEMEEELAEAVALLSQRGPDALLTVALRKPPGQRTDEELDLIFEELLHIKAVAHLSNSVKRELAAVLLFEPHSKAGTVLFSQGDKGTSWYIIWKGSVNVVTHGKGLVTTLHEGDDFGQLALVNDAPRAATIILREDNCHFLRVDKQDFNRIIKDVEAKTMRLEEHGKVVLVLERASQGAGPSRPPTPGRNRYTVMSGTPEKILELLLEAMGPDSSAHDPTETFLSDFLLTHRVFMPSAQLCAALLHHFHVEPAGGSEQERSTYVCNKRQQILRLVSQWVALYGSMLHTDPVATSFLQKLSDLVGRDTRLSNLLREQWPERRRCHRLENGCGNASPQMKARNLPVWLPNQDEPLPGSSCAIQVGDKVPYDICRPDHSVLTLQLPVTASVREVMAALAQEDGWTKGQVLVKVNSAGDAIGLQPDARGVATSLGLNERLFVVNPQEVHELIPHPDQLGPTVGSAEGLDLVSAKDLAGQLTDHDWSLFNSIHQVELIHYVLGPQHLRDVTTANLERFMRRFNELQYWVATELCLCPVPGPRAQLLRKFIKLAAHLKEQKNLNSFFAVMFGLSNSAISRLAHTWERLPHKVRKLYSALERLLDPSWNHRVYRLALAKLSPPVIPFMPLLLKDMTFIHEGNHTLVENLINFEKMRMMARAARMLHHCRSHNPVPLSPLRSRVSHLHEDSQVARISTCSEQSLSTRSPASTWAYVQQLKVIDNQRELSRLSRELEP
The experiment in a line: Relative affinity for Epac (cAMP = 1), in vitro. The class given is binding. Conditions: relative to cAMP = 1.

Regarding “2′-deoxyadenosine-3′,5′-cyclic monophosphate [Compound I-001]”, the “Relative affinity CAMP = 1 PKAI” value in the assay on PKAI came to 0.00013. The “Relative activity of Epac*” value on Epac1-ΔDEP1 is “+”. Moreover, the “Relative affinity CAMP = 1 PKAII” value in the assay on PKAII is listed as 0.000088. Moreover, the “Relative affinity CAMP = 1 Epac” value at Epac was 0.0025.
Taken in the same sequence, the figures for “8-(2-amino-phenylthio)-2′-O-methyladenosine-3′,5′-cyclic monophosphate [Compound I-107]” were 0.004, “+”, 0.0001 and 1.3.
Taken in the same sequence, the figures for “8-(4-chloro-phenylthio)-2′-deoxyadenosine-3′,5′-cyclic monophosphate [Compound I-003]” were 0.001, “+”, 0.001 and 0.2.
Taken in the same sequence, the figures for “8-(4-fluoro-phenylthio)-2′-O-methyladenosine-3′,5′-cyclic monophosphate [Compound I-102]” were 0.02, “+++”, 0.0004 and 4.5.
For the molecule “8-(4-methoxy-phenylthio)-2′-O-methyladenosine-3′,5′-cyclic monophosphate [Compound I-112]”, the “Relative affinity CAMP = 1 PKAI” value in the assay with PKAI amounted to 0.025. Also, the “Relative activity of Epac*” value on Epac1-ΔDEP1 is on record as “+++”. Also, the “Relative affinity CAMP = 1 PKAII” value with PKAII came to 0.0006. Moreover, at Epac, the “Relative affinity CAMP = 1 Epac” value is 6.5.
Taken in the same sequence, the figures for “8-(4-methyl-cumarinyl-7-thio)-2′-O-methyladenosine-3′,5′-cyclic monophosphate [Compound I-103]” were 0.03, “±”, 0.0005 and 1.8.
With “8-(4-nitro-phenylthio)-2′-O-methyladenosine-3′,5′-cyclic monophosphate [Compound I-106]”, in the assay with PKAI, the “Relative affinity CAMP = 1 PKAI” value was 0.02. Moreover, the “Relative activity of Epac*” value at Epac1-ΔDEP1 was “++”. Besides, in the assay on PKAII, the “Relative affinity CAMP = 1 PKAII” value was found to be 0.0002. The “Relative affinity CAMP = 1 Epac” value at Epac was 1.2.
Taken in the same sequence, the figures for “8-(naphtyl-2-thio)-2′-O-methyladenosine-3′,5′-cyclic monophosphate [Compound I-104]” were 0.03, “++”, 0.001 and 2.3.
Taken in the same sequence, the figures for “8-benzylthio-2′-O-methyladenosine-3′,5′-cyclic monophosphate [Compound I-108]” were 0.04, “+”, 0.0007 and 1.3.
As to “8-bromo-2′-O-methyladenosine-3′,5′-cyclic monophosphate [Compound I-006]”, the “Relative affinity CAMP = 1 PKAI” value in the assay with PKAI was determined as 0.0015. Besides, the “Relative activity of Epac*” value at Epac1-ΔDEP1 is on record as “++”. The “Relative affinity CAMP = 1 PKAII” value in the assay on PKAII is reported as 0.003. Besides, the “Relative affinity CAMP = 1 Epac” value on Epac is 0.9.
Taken in the same sequence, the figures for “8-bromo-2′-deoxyadenosine-3′,5′-cyclic monophosphate [Compound I-002]” were 0.01, “+”, 0.00001 and 0.12.
Taken in the same sequence, the figures for “8-isopropylthio-2′-O-methyladenosine-3′,5′-cyclic monophosphate [Compound I-113]” were 0.028, “+”, 0.0004 and 0.7.
As to “8-methylamino-2′-O-methyladenosine-3′,5′-cyclic monophosphate [Compound I-100]”, in the assay with PKAI, the “Relative affinity CAMP = 1 PKAI” value is 0.0014. Further, the “Relative activity of Epac*” value on Epac1-ΔDEP1 is “±”. In addition, the “Relative affinity CAMP = 1 PKAII” value with PKAII worked out at 0.0001. For the same molecule, the “Relative affinity CAMP = 1 Epac” value on Epac was below 0.5.
Taken in the same sequence, the figures for “8-methylthio-2′-O-methyladenosine-3′,5′-cyclic monophosphate [Compound I-101]” were 0.012, “+”, 0.0006 and 1.3.
Consider “8-n-hexylthio-2′-O-methyladenosine-3′,5′-cyclic monophosphate [Compound I-109]”, for which the “Relative affinity CAMP = 1 PKAI” value in the assay on PKAI stood at 0.03. Further, on Epac1-ΔDEP1, the “Relative activity of Epac*” value is recorded as “++”. Besides, the “Relative affinity CAMP = 1 PKAII” value with PKAII was determined as 0.0008. Besides, the “Relative affinity CAMP = 1 Epac” value on Epac turned out to be 1.2.
In the case of “8-phenylthio-2′-O-methyladenosine-3′,5′-cyclic monophosphate [Compound I-105]”, the “Relative affinity CAMP = 1 PKAI” value in the assay on PKAI amounted to 0.02. Besides, the “Relative activity of Epac*” value on Epac1-ΔDEP1 is “++”. For the same molecule, the “Relative affinity CAMP = 1 PKAII” value in the assay on PKAII was 0.0005. Further, the “Relative affinity CAMP = 1 Epac” value at Epac is recorded as 3.6.
On to `O=[P@]1(O)OC[C@H]2O[C@@H](n3c(Sc4ccc(Cl)cc4)nc4c(Nc5ccccc5)ncnc43)C[C@@H]2O1` [Compound I-004, 8-(4-chloro-phenylthio)-N^6-phenyl-2′-deoxyadenosine-3′,5′-cyclic monophosphate], for which the “Relative affinity CAMP = 1 PKAI” value in the assay with PKAI turned out to be 0.03. Further, the “Relative affinity CAMP = 1 PKAII” value in the assay on PKAII is recorded as 0.26. The “Relative affinity CAMP = 1 Epac” value on Epac is recorded as 0.5.
